A value given as a limit tells only on which side of the number the result lay.

This test has as its target T1, FSHR (Homo sapiens, UniProt P23945).
T1 construct: expressed in transfected cells; host or cells: CHO (Cho-FSHR-LUC-1-1-43)
T1 sequence (P23945 18-695): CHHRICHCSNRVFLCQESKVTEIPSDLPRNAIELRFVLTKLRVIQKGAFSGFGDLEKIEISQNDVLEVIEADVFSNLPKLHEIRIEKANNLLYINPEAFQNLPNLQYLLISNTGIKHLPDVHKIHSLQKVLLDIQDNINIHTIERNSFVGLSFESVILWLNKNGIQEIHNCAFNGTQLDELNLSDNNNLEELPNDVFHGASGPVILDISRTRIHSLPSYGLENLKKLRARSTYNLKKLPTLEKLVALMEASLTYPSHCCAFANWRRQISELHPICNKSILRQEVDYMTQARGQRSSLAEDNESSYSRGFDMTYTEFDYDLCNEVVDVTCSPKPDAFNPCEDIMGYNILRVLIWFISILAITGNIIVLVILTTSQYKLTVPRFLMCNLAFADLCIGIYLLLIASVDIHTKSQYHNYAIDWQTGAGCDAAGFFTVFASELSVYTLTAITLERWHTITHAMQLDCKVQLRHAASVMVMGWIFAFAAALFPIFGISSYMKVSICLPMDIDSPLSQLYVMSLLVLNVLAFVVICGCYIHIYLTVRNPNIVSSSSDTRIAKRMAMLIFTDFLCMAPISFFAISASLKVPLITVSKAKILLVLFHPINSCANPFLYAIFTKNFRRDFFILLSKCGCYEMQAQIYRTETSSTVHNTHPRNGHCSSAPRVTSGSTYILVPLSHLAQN
As to the kind of experiment: EC50 of cyclic AMP production in CHO FSHR cells + EC20 FSH (Assay A). It is filed as cell-based. The note with it: CHO FSHR cells + EC20 FSH, cAMP HTRF; read-out: Assay A: EC50 of cyclic AMP production. The method in brief:
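cAMP HTRF read-out (665 nm/620 nm ratio) after 1 h at 37° C of Cho-FSHR-LUC cells treated with serially diluted test compound plus EC20 FSH ([…]) and IBMX (final 200 μM). Responses given as percent of maximal FSH-standard effect.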

Consider `COc1cc2c(cc1C=C(C)C)-c1c(c(C(=O)N3CCCC(NC(=O)OC(C)(C)C)CC3)nn1-c1ccsc1)CO2` (centres unmarked) [Compound 35, {1-[7-Methoxy-8-(2-methyl-propenyl)-1-thiophen-3-yl-1,4-dihydro-chromeno[4,3-c]pyrazole-3-carbonyl]-azepan-4-yl}-carbamic acid tert-butyl ester], for which the EC50 was in the range of 1000 to 5000 nM.
In the case of `COc1cc2c(cc1S(=O)(=O)CC(C)C)-c1c(c(C(=O)N3CCOCC3(C)C)nn1-c1ccsc1)CO2` [Compound 127, (3,3-Dimethyl-morpholin-4-yl)-[7-methoxy-8-(2-methyl-propane-1-sulfonyl)-1-thiophen-3-yl-1,4-dihydro-chromeno[4,3-c]pyrazol-3-yl]-methanone], the EC50 was more than 5000 nM.
`[2H]C([2H])([2H])OC1CC(N(C(=O)c2nn(-c3ccsc3)c3c2COc2cc(OC)c(-c4ccn(C)c4)cc2-3)C([2H])([2H])[2H])C1` (centres unmarked) [Compound 142]: the EC50 was more than 5000 nM.
`[2H]C([2H])([2H])O[C@H]1CC[C@H](N(C(=O)c2nn(-c3ccsc3)c3c2COc2cc(OC)c(-c4ccn(C)c4)cc2-3)C([2H])([2H])[2H])C1` [Compound 197]: the concentration for a half-maximal effect (EC50) lay within 1000 to 5000 nM.
As for `COc1cc2c(cc1-c1ccnn1C)-c1c(c(C(=O)NC3(C)COC3)nn1-c1ccsc1)CO2` [Compound 109, 7-Methoxy-8-(2-methyl-2H-pyrazol-3-yl)-1-thiophen-3-yl-1,4-dihydro-chromeno[4,3-c]pyrazole-3-carboxylic acid (3-methyl-oxetan-3-yl)-amide], the 50% effective concentration (EC50) was in the range of 100 to 1000 nM.
For `COc1cc2c(cc1C1=CCN(C)CC1)-c1c(c(C(=O)N(C)C(C)(C)C)nn1-c1ccsc1)CO2` [Compound 68, 7-Methoxy-8-(1-methyl-1,2,3,6-tetrahydro-pyridin-4-yl)-1-thiophen-3-yl-1,4-dihydro-chromeno[4,3-c]pyrazole-3-carboxylic acid tert-butyl-methyl-amide], the concentration for a half-maximal effect (EC50) is less than 100 nM.
Consider `COc1cc2c(cc1-c1ccn(C)c1)-c1c(c(C(=O)N[C@H]3CC[C@@H](O)C3)nn1-c1ccsc1)CO2` [Compound 173, 7-Methoxy-8-(1-methyl-1H-pyrrol-3-yl)-1-thiophen-3-yl-1,4-dihydro-chromeno[4,3-c]pyrazole-3-carboxylic acid ((1S,3R)-3-hydroxy-cyclopentyl)-amide], for which the 50% effective concentration (EC50) is more than 5000 nM.
Regarding `COc1cc2c(cc1-c1cscn1)-c1c(c(C(=O)N(C)C(C)(C)C)nn1-c1ccsc1)CO2` [Compound 81, 7-Methoxy-8-thiazol-4-yl-1-thiophen-3-yl-1,4-dihydro-chromeno[4,3-c]pyrazole-3-carboxylic acid tert-butyl-methyl-amide], the EC50 was less than 100 nM.
To `COc1cc2c(cc1-c1c(C)noc1C)-c1c(c(C(=O)N(C)C(C)(C)C)nn1-c1ccsc1)CO2` [Compound 67, 8-(3,5-Dimethyl-isoxazol-4-yl)-7-methoxy-1-thiophen-3-yl-1,4-dihydro-chromeno[4,3-c]pyrazole-3-carboxylic acid tert-butyl-methyl-amide] belongs less than 100 nM; to `CCOCn1cc(-c2cc3c(cc2OC)OCc2c(C(=O)N(C)C(C)(C)C)nn(-c4ccsc4)c2-3)nn1` [Compound 152, 8-(1-Ethoxymethyl-1H-[1,2,3]triazol-4-yl)-7-methoxy-1-thiophen-3-yl-1,4-dihydro-chromeno[4,3-c]pyrazole-3-carboxylic acid tert-butyl-methyl-amide], less than 100 nM.
In the case of `COc1cc2c(cc1S(=O)(=O)C1CC1)-c1c(c(C(=O)N3CCOCC3(C)C)nn1-c1ccsc1)CO2` [Compound 106, (8-Cyclopropanesulfonyl-7-methoxy-1-thiophen-3-yl-1,4-dihydro-chromeno[4,3-c]pyrazol-3-yl)-(3,3-dimethyl-morpholin-4-yl)-methanone], the EC50 lay within 100 to 1000 nM.
In the case of `COc1cc2c(cc1-c1ccn(C)n1)-c1c(c(C(=O)N3CCN(C(=O)OC(C)(C)C)CC34CC4)nn1-c1ccsc1)CO2` [Compound 158, 4-[7-Methoxy-8-(1-methyl-1H-pyrazol-3-yl)-1-thiophen-3-yl-1,4-dihydro-chromeno[4,3-c]pyrazole-3-carbonyl]-4,7-diaza-spiro[2.5]octane-7-carboxylic acid tert-butyl ester], the EC50 lay in the range of 1000 to 5000 nM.
Turning to `COc1cc2c(cc1-c1cnn(CCN(C)C)c1)-c1c(c(C(=O)N3CCOCC3(C)C)nn1-c1ccsc1)CO2` [Compound 203, {8-[1-(2-Dimethylamino-ethyl)-1H-pyrazol-4-yl]-7-methoxy-1-thiophen-3-yl-1,4-dihydro-chromeno[4,3-c]pyrazol-3-yl}-(3,3-dimethyl-morpholin-4-yl)-methanone], the EC50 fell in the range of 100 to 1000 nM.
For `COc1cc2c(cc1C1=CCCN(C)C1)-c1c(c(C(=O)N(C)C(C)(C)C)nn1-c1ccsc1)CO2` [Compound 134, 7-Methoxy-8-(1-methyl-1,2,5,6-tetrahydro-pyridin-3-yl)-1-thiophen-3-yl-1,4-dihydro-chromeno[4,3-c]pyrazole-3-carboxylic acid tert-butyl-methyl-amide], the EC50 fell in the range of 100 to 1000 nM.
On to `COc1cc2c(cc1-c1cncnc1)-c1c(c(C(=O)N(C)C(C)(C)C)nn1-c1ccsc1)CO2` [Compound 70, 7-Methoxy-8-pyrimidin-5-yl-1-thiophen-3-yl-1,4-dihydro-chromeno[4,3-c]pyrazole-3-carboxylic acid tert-butyl-methyl-amide], for which the EC50 was less than 100 nM.
Consider `COc1cc2c(cc1-c1cnn(CCC#N)c1)-c1c(c(C(=O)N3CCOCC3(C)C)nn1-c1ccsc1)CO2` [Compound 190, 3-{4-[3-(3,3-Dimethyl-morpholine-4-carbonyl)-7-methoxy-1-thiophen-3-yl-1,4-dihydro-chromeno[4,3-c]pyrazol-8-yl]-pyrazol-1-yl}-propionitrile], for which the 50% effective concentration (EC50) is less than 100 nM.
Turning to `[2H]C([2H])([2H])N(CCN1CCOC1=O)C(=O)c1nn(-c2ccsc2)c2c1COc1cc(OC)c(-c3cnn(C([2H])([2H])[2H])c3)cc1-2` [Compound 78], the EC50 is less than 100 nM.
Take `COc1cc2c(cc1-c1ccnn1C)-c1c(c(C(=O)NC3(CO)COC3)nn1-c1ccsc1)CO2` [Compound 111, 7-Methoxy-8-(2-methyl-2H-pyrazol-3-yl)-1-thiophen-3-yl-1,4-dihydro-chromeno[4,3-c]pyrazole-3-carboxylic acid (3-hydroxymethyl-oxetan-3-yl)-amide]: the EC50 fell in the range of 100 to 1000 nM.
As for `COc1cc2c(cc1-c1ccn(C)n1)-c1c(c(C(=O)NC(C)(CO)CO)nn1-c1ccsc1)CO2` [Compound 185, 7-Methoxy-8-(1-methyl-1H-pyrazol-3-yl)-1-thiophen-3-yl-1,4-dihydro-chromeno[4,3-c]pyrazole-3-carboxylic Acid (2-hydroxy-1-hydroxymethyl-1-methyl-ethyl)-amide], the 50% effective concentration (EC50) is 100 to 1000 nM.
The same measure for `CCOC(=O)C1CCN(C(=O)c2nn(-c3ccsc3)c3c2COc2cc(OC)c(C=C(C)C)cc2-3)CC1` [Compound 14, 1-{7-Methoxy-8-(2-methyl-propenyl)-1-thiophen-3-yl-1,4-dihydro-chromeno[4,3-c]pyrazole-3-carbonyl]-piperidine-4-carboxylic acid ethyl ester]: 1000 to 5000 nM; for `[2H]C([2H])([2H])O[C@H]1CC[C@H](N(C(=O)c2nn(-c3ccsc3)c3c2COc2cc(OC)c(-c4ccn(C)n4)cc2-3)C([2H])([2H])[2H])C1` [Compound 196]: more than 5000 nM; for `COc1cc2c(cc1-c1c[nH]nc1C)-c1c(c(C(=O)NC3CCOC3)nn1-c1ccsc1)CO2` (centres unmarked) [Compound 135, 7-Methoxy-8-(3-methyl-1H-pyrazol-4-yl)-1-thiophen-3-yl-1,4-dihydro-chromeno[4,3-c]pyrazole-3-carboxylic acid (tetrahydro-furan-3-yl)-amide]: 1000 to 5000 nM.
For the compound `[2H]C([2H])([2H])C(C(=O)c1nn(-c2ccsc2)c2c1COc1cc(OC)c(-c3ccn(C)n3)cc1-2)C1(C)CNC1` (centres unmarked) [Compound 193], the concentration for a half-maximal effect (EC50) is more than 5000 nM.
Consider `COc1cc2c(cc1C=C(C)C)-c1c(c(C(=O)N3CCOCC3(C)C)nn1-c1ccsc1)CO2` [Compound 39, (3,3-Dimethyl-morpholin-4-yl)-[7-methoxy-8-(2-methyl-propenyl)-1-thiophen-3-yl-1,4-dihydro-chromeno[4,3-c]pyrazol-3-yl]-methanone], for which the EC50 is less than 100 nM.
Regarding `COc1cc2c(cc1S(=O)(=O)C(C)C)-c1c(c(C(=O)N3CCOCC3(C)C)nn1-c1ccsc1)CO2` [Compound 112, (3,3-Dimethyl-morpholin-4-yl)-[7-methoxy-8-(propane-2-sulfonyl)-1-thiophen-3-yl-1,4-dihydro-chromeno[4,3-c]pyrazol-3-yl]-methanone], the EC50 is 1000 to 5000 nM.
Regarding `[2H]C([2H])([2H])OCC1(C)CCCN1C(=O)c1nn(-c2ccsc2)c2c1COc1cc(OC)ccc1-2` (centres unmarked) [Compound 183, (2-Methoxymethyl-2-methyl-pyrrolidin-1-yl)-(7-methoxy-1-thiophen-3-yl-1,4-dihydro-chromeno[4,3-c]pyrazol-3-yl)-methanone], the EC50 is 100 to 1000 nM.

The record behind these values is patent publication US11365199B2, “Pyrazole compounds as modulators of FSHR and uses thereof” (Merck Patent GmbH, priority 2013, dated 2022).
